# Data: patent US20160115540A1, “PRODRUGS AND DRUGS” (Biogen MA Inc., priority 2013, published 2016)
# Structures can show the parent of a compound that is named as a salt.
# Columns and labels:
# spleen = assay: Transcriptional profiling, multi-dosing regimen, naïve mice: spleen; assay type: in vivo; details: for Number of differentially expressed genes identified: Spleen: Table 13: Naïve, Single Dose (so in the source), 12 h after last dosing
# Method: (§1) In vivo, DMF is rapidly metabolized to monomethyl fumarate (MMF). […] Animals were exposed to CO2 and whole blood collected via cardiac puncture. Two 100 μl aliquots of whole blood were collected in 1.5 mL microcentrifuge tubes and snap frozen in liquid nitrogen. Peripheral (liver, spleen, kidney and jejunum) and CNS brain (cerebellum, hippocampus, striatum and cortex) tissues were harvested and snap frozen in liquid nitrogen, with special care taken to collect tissues of similar size and from the same location. All samples were stored at -80° C. until RNA extraction was conducted. For RNA preparation, frozen tissues were placed in 2 mL RNAse-free 96-well blocks with 1.5 mL QIAzol Lysis Reagent (QIAgen) and a 3.2 mm stainless steel bead (BioSpec Products, Bartlesville, Okla.). Tissues were disrupted for four cycles of 45 seconds in a Mini-Beadbeater (Biospec Products). RNA was extracted in chloroform and the aqueous phase was mixed with an equal volume of 70% ethanol. Extracted RNA was applied to RNeasy 96 plates and purified by the spin method according to the manufacturer's protocol (RNeasy 96 Universal Tissue Protocol, QIAgen, Hilden Germany). […] Two micrograms of biotin labeled […] probe were hybridized to Affymetrix GeneChip Affymetrix HT_MG-430_PM plate arrays with modified conditions as described in […] et al. Washing and staining of the hybridized arrays were completed as described in the GeneChip Expression analysis technical manual for HT plate arrays using the Genechip® Array Station (Affymetrix, Santa Clara, Calif.) with modifications as described in […] et al. The processed GeneChip® plate arrays were scanned using GeneTitan scanner (Affymetrix, Santa Clara, Calif.). Affymetrix scans were subject to quality control (QC) measures. These tests included a visual inspection of the distribution of raw signal intensities and an assessment of RNA degradation, relative log expression (RLE), and normalized unsealed standard error (NUSE). All sample scans that passed these QC metrics were included in the analysis. All CEL files were subjected to GC-content-based Robust Multi-array Average (GCRMA) normalization (version 2.20.0) (Irizarry R A, et al. Nucleic Acids Res 2003; 31:e15; Li C, et al. […] Stat Appl Genet Mol Biol 2004; 3:Article3). […] Springer Science+Business Media 2005). Changes in gene expression were studied by applying a linear modeling approach to fit gene expression levels according to the defined groups of samples (e.g. DMF-, MMF-, and Vehicle-treated animals) and Bayesian posterior error analysis as implemented by Smyth (Smyth G K. Stat Appl Genet Mol Biol 2004; 3:Article3). The comparisons considered included: DMF-vs-MMF, DMF-vs-Vehicle, and MMF-vs-Vehicle. […] Very few DEGs are observed in blood and tissues derived from the central nervous system (brain, cerebellum, cortex, striatum, and spinal cord).
# spinal cord = assay: Transcriptional profiling, multi-dosing regimen, naïve mice: spinal cord; assay type: in vivo; details: for FC, Depp (1433836_PM_a_at) / FC, Depp (1433837_PM_at): SpinalCord, multi-dosing; for Number of differentially expressed genes identified: Spinal Cord: Table 13: Naïve, Single Dose (so in the source), 12 h after last dosing
# Method: as §1
# [1] = SPLEEN, 100DMF-vs-100MMF, naïve multidose
# [2] = SPLEEN, 100DMF-vs-Veh, naïve multidose
# [3] = SPINAL CORD, 100DMF-vs-100MMF, naïve multidose
# [4] = SPLEEN, 100MMF-vs-Veh, naïve multidose
smiles,measurement,setting,value
"COC(=O)/C=C/C(=O)OC [DMF, dimethyl fumarate]",FC 4931431B13Rik (1430416_PM_at),spleen; [1],2.18
same,FC AU015536 (1445025_PM_at),spleen; [1],1.55
same,FC Adap2 (1425639_PM_at),spleen; [1],1.60
same,FC Agtr1a (1436739_PM_at),spleen; [1],1.61
same,FC Ano1 (1426571_PM_at),spleen; [1],1.70
same,FC Ano1 (1459713_PM_s_at),spleen; [1],1.55
same,FC Apoc1 (1417561_PM_at),spleen; [1],1.74
same,FC Ccbe1 (1439327_PM_at),spleen; [1],2.07
same,FC Ccdc80 (1424187_PM_at),spleen; [1],1.74
same,FC Ccl3 (1419561_PM_at),spleen; [1],1.81
same,FC Ccl6 (1420249_PM_s_at),spleen; [1],1.88
same,FC Ccr3 (1422957_PM_at),spleen; [1],2.25
same,FC Cd300ld (1424832_PM_at),spleen; [1],1.82
same,FC Cdr2l (1445027_PM_at),spleen; [1],1.57
same,FC Clec4n (1419627_PM_s_at),spleen; [1],1.52
same,FC Clec4n (1425951_PM_a_at),spleen; [1],1.83
same,FC Dmd (1417307_PM_at),spleen; [1],1.59
same,FC Ear1 (1421802_PM_at),spleen; [1],3.89
same,FC Ear1 /// Ear12 /// Ear2 /// Ear3 (1422411_PM_s_at),spleen; [1],1.79
same,FC Ear2 (1449846_PM_at),spleen; [1],1.51
same,FC Ear3 (1422412_PM_x_at),spleen; [1],1.80
same,FC Emr4 (1424998_PM_at),spleen; [1],1.77
same,FC Ercc61 (1424766_PM_at),spleen; [1],−1.66
same,FC Fam63a (1438321_PM_x_at),spleen; [1],−1.52
same,FC Fcgr1 (1417876_PM_at),spleen; [1],1.61
same,FC Fcna (1418243_PM_at),spleen; [1],1.57
same,FC Hs6st2 (1450047_PM_at),spleen; [1],1.64
same,FC Kcnj16 (1435094_PM_at),spleen; [1],1.69
same,FC Klrb1a (1450296_PM_at),spleen; [1],1.78
same,FC Lphn3 (1458742_PM_at),spleen; [1],1.60
same,FC Ncr1 (1422089_PM_at),spleen; [1],1.54
same,FC Niacr1 (1419721_PM_at),spleen; [1],1.65
same,FC P2ry12 (1431724_PM_a_at),spleen; [1],1.66
same,FC Pla2g7 (1430700_PM_a_at),spleen; [1],1.51
same,FC Ptplad2 (1450967_PM_at),spleen; [1],1.56
same,FC Rab31 (1431691_PM_a_at),spleen; [1],1.73
same,FC Rnf144b (1425282_PM_at),spleen; [1],1.86
same,FC Skiv2l (1422584_PM_at),spleen; [1],−1.52
same,FC St18 (1455123_PM_at),spleen; [1],1.75
same,FC Sult1a1 (1427345_PM_a_at),spleen; [1],1.51
same,FC Tmem26 (1434583_PM_at),spleen; [1],1.57
same,FC Ubn2 (1430056_PM_at),spleen; [1],−1.62
same,FC Vcam1 (1415989_PM_at),spleen; [1],1.50
same,FC Vcam1 (1436003_PM_at),spleen; [1],1.62
same,FC Vcam1 (1451314_PM_a_at),spleen; [1],1.61
same,FC Vnn3 (1420723_PM_at),spleen; [1],1.54
same,FC probe 1420250_PM_at (no gene symbol),spleen; [1],1.50
same,FC probe 1421534_PM_at (no gene symbol),spleen; [1],1.57
same,FC probe 1429277_PM_at (no gene symbol),spleen; [1],1.59
same,FC probe 1442323_PM_at (no gene symbol),spleen; [1],−1.55
same,FC probe 1444189_PM_at (no gene symbol),spleen; [1],1.71
same,FC probe 1445379_PM_at (no gene symbol),spleen; [1],−1.51
same,FC Aox1 (1419435_PM_at),spleen; [2],1.66
same,FC Gsta3 (1423436_PM_at),spleen; [2],1.86
same,FC Gstm1 (1416416_PM_x_at),spleen; [2],1.57
same,FC Gstm1 (1448330_PM_at),spleen; [2],1.61
same,Number of differentially expressed genes identified: Spleen,spleen; 100 mpk DMF-vs-90 mpk MMF,52
same,Number of differentially expressed genes identified: Spleen,spleen; 100 mpk DMF-vs-Vehicle,4
same,"CCR3, Klrb1c, NCR1 and CCL3L1 expression (downstream of IL2), DMF vs MMF","spleen; spleen, multi-dosed naïve mice",up-regulated
same,"FCGR1A, ST18, CCL3L1 and VCAM1 expression (downstream of NFkB), DMF vs MMF","spleen; spleen, multi-dosed naïve mice",up-regulated
same,FC 8430408G22Rik (1433836_PM_a_at),spinal cord; [3],1.92
same,FC 8430408G22Rik (1433837_PM_at),spinal cord; [3],1.65
same,FC Mtmr2 (1425459_PM_at),spinal cord; [3],1.57
same,FC Tle4 (1430384_PM_at),spinal cord; [3],−1.55
same,FC 8430408G22Rik (1433837_PM_at),"spinal cord; SPINAL CORD, 100DMF-vs-Veh, naïve multidose",1.73
same,"FC, Depp (1433836_PM_a_at)",spinal cord; DMF-vs-MMF,1.92
same,"FC, Depp (1433837_PM_at)",spinal cord; DMF-vs-MMF,1.65
same,"FC, Depp (1433836_PM_a_at)",spinal cord; DMF-vs-Vehicle,1.66
same,"FC, Depp (1433837_PM_at)",spinal cord; DMF-vs-Vehicle,1.73
same,Number of differentially expressed genes identified: Spinal Cord,spinal cord; 100 mpk DMF-vs-90 mpk MMF,4
same,Number of differentially expressed genes identified: Spinal Cord,spinal cord; 100 mpk DMF-vs-Vehicle,1
same,DEPP gene induction (mRNA),"spinal cord; spinal cord, multi-dosing regimen, naïve mice",robustly induced
"COC(=O)/C=C/C(=O)O [MMF, monomethyl fumarate]",FC 4931431B13Rik (1430416_PM_at),spleen; [4],−1.94
same,FC 5430404G13Rik (1453540_PM_at),spleen; [4],−1.55
same,FC 5730403M16Rik (1434343_PM_at),spleen; [4],1.51
same,FC Ccdc80 (1424187_PM_at),spleen; [4],−1.64
same,FC Ccl3 (1419561_PM_at),spleen; [4],−1.82
same,FC Ccr3 (1422957_PM_at),spleen; [4],−2.37
same,FC Cd300ld (1424832_PM_at),spleen; [4],−1.85
same,FC Clec4a2 (1422013_PM_at),spleen; [4],−1.50
same,FC Clec4a2 (1425406_PM_at),spleen; [4],−1.64
same,FC Clec4a3 (1429954_PM_at),spleen; [4],−1.58
same,FC Clec4n (1425951_PM_a_at),spleen; [4],−1.81
same,FC Csmd3 (1438272_PM_at),spleen; [4],−1.80
same,FC Defb1 (1419491_PM_at),spleen; [4],1.55
same,FC Dmd (1417307_PM_at),spleen; [4],−1.56
same,FC Ear3 (1422412_PM_x_at),spleen; [4],−1.73
same,FC Emr4 (1424998_PM_at),spleen; [4],−1.75
same,FC Fam63a (1438321_PM_x_at),spleen; [4],1.54
same,FC Fcgr1 (1417876_PM_at),spleen; [4],−1.84
same,FC Fgfrl1 /// LOC100046239 (1447878_PM_s_at),spleen; [4],1.53
same,FC Gzma (1417898_PM_a_at),spleen; [4],−1.64
same,FC Hpgds (1421492_PM_at),spleen; [4],−1.55
same,FC Hs6st2 (1450047_PM_at),spleen; [4],−1.75
same,FC Iigp1 (1419043_PM_a_at),spleen; [4],−1.72
same,FC Lrp4 (1426288_PM_at),spleen; [4],−1.51
same,FC Lrrc50 (1421974_PM_at),spleen; [4],1.53
same,FC Niacr1 (1419721_PM_at),spleen; [4],−1.91
same,FC Ptplad2 (1450967_PM_at),spleen; [4],−1.55
same,FC Rab31 (1431691_PM_a_at),spleen; [4],−1.62
same,FC Rnf144b (1425282_PM_at),spleen; [4],−1.71
same,FC Stfa2l1 (1442339_PM_at),spleen; [4],−2.07
same,FC Stx1a (1437390_PM_x_at),spleen; [4],1.53
same,FC Tmem26 (1434583_PM_at),spleen; [4],−1.67
same,FC Ubn2 (1430056_PM_at),spleen; [4],1.64
same,FC Ucp2 (1444566_PM_at),spleen; [4],1.54
same,FC Vnn3 (1420723_PM_at),spleen; [4],−1.59
same,FC probe 1429277_PM_at (no gene symbol),spleen; [4],−1.60
same,FC probe 1431225_PM_at (no gene symbol),spleen; [4],1.58
same,FC probe 1439831_PM_at (no gene symbol),spleen; [4],−1.51
same,FC probe 1442323_PM_at (no gene symbol),spleen; [4],1.51
same,FC probe 1447204_PM_at (no gene symbol),spleen; [4],−1.95
same,FC probe 1449653_PM_at (no gene symbol),spleen; [4],−1.57
same,FC probe 1457306_PM_at (no gene symbol),spleen; [4],2.12
same,Number of differentially expressed genes identified: Spleen,spleen; 90 mpk MMF-vs-Vehicle,42
same,"FC, Depp (1433836_PM_a_at)",spinal cord; MMF-vs-Vehicle,−1.16
same,"FC, Depp (1433837_PM_at)",spinal cord; MMF-vs-Vehicle,1.05
same,Number of differentially expressed genes identified: Spinal Cord,spinal cord; 90 mpk MMF-vs-Vehicle,0
